Values joined by “and” are separate entries in the source; they are usually repeats but may differ in a detail not shown here. Equal values may be shown once.
How the values were obtained:
Assay in all cases: CYP51 reconstitution assay
Type in all cases: biochemical
[1] = target: T1, CaCYP51 V437I (Candida albicans, UniProt P10613, V437I)
T1 construct: made in house; host or cells: E. coli DH5α (pCWori+)
Protocol: (§1) Azole antifungal agents were added in 2.5 μl dimethyl sulfoxide, followed by 10 min of incubation at 37°C prior to assay initiation with 4 mM β-NADPH-Na4. The samples were then shaken for 15 min at 37°C. Sterol metabolites were recovered by extraction with ethyl acetate, followed by derivatization with 0.1 ml N,O-bis(trimethylsilyl)trifluoroacetamide (BSTFA)–trimethylchlorosilane (TMCS) (99:1) and 0.3 ml anhydrous pyridine (2 h at 80°C), prior to analysis by gas chromatography-mass spectrometry (GC-MS) ([52]). IC50 determinations were performed in duplicate.

[2] = target: T2, CaCYP51 R467K (Candida albicans, UniProt P10613, R467K)
T2 construct: made in house; host or cells: E. coli DH5α (pCWori+)
Protocol: as §1

[3] = target: T3, CaCYP51 V456I (Candida albicans, UniProt P10613, V456I)
T3 construct: made in house; host or cells: E. coli DH5α (pCWori+)
Protocol: as §1

[4] = target: T4, CaCYP51 D278N (Candida albicans, UniProt P10613, D278N)
T4 construct: made in house; host or cells: E. coli DH5α (pCWori+)
Protocol: as §1

[5] = target: T5, CaCYP51 G307S+G450E (Candida albicans, UniProt P10613, G307S/G450E)
T5 construct: made in house; host or cells: E. coli DH5α (pCWori+)
T5 sequence (P10613 whole entry, looked up, stated change not applied): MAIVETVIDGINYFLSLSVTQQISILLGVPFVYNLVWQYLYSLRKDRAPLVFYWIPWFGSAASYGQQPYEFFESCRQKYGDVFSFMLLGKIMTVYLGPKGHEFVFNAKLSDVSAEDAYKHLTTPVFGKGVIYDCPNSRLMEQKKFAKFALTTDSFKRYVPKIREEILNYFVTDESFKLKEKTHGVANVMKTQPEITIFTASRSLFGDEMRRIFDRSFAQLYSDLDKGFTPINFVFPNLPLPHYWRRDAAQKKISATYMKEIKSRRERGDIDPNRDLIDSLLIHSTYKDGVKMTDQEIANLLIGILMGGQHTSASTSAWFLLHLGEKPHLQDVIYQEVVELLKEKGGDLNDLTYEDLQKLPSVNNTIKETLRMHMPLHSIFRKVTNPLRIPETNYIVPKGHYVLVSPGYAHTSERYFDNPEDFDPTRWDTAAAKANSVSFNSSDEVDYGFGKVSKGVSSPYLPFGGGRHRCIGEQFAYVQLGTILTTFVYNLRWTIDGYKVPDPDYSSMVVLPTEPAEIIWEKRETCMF
Protocol: as §1

[6] = target: T6, CaCYP51 Wild type (Candida albicans, UniProt P10613)
T6 construct: made in house; host or cells: E. coli DH5α (pCWori+)
Protocol: as §1

[7] = target: T7, CaCYP51 V488I (Candida albicans, UniProt P10613, V488I)
T7 construct: made in house; host or cells: E. coli DH5α (pCWori+)
T7 sequence (P10613 whole entry, looked up, stated change not applied): as above
Protocol: as §1

[8] = target: T8, CaCYP51 D278N+G464S (Candida albicans, UniProt P10613, D278N/G464S)
T8 construct: made in house; host or cells: E. coli DH5α (pCWori+)
T8 sequence (P10613 whole entry, looked up, stated change not applied): as above
Protocol: as §1

[9] = target: T9, CaCYP51 S279F (Candida albicans, UniProt P10613, S279F)
T9 construct: made in house; host or cells: E. coli DH5α (pCWori+)
Protocol: as §1

[10] = target: T10, CaCYP51 F449Y (Candida albicans, UniProt P10613, F449Y)
T10 construct: made in house; host or cells: E. coli DH5α (pCWori+)
Protocol: as §1

[11] = target: T11, CaCYP51 I471T (Candida albicans, UniProt P10613, I471T)
T11 construct: made in house; host or cells: E. coli DH5α (pCWori+)
T11 sequence (P10613 whole entry, looked up, stated change not applied): as above
Protocol: as §1

[12] = target: T12, CaCYP51 F145L (Candida albicans, UniProt P10613, F145L)
T12 construct: made in house; host or cells: E. coli DH5α (pCWori+)
Protocol: as §1

[13] = target: T13, CaCYP51 G307S (Candida albicans, UniProt P10613, G307S)
T13 construct: made in house; host or cells: E. coli DH5α (pCWori+)
Protocol: as §1

[14] = target: T14, CaCYP51 G448E (Candida albicans, UniProt P10613, G448E)
T14 construct: made in house; host or cells: E. coli DH5α (pCWori+)
Protocol: as §1

[15] = target: T15, CaCYP51 G464S (Candida albicans, UniProt P10613, G464S)
T15 construct: made in house; host or cells: E. coli DH5α (pCWori+)
T15 sequence (P10613 whole entry, looked up, stated change not applied): as above
Protocol: as §1

[16] = target: T16, CaCYP51 Y257H (Candida albicans, UniProt P10613, Y257H)
T16 construct: made in house; host or cells: E. coli DH5α (pCWori+)
Protocol: as §1

[17] = target: T17, CaCYP51 Y132H+K143R (Candida albicans, UniProt P10613, K143R/Y132H)
T17 construct: made in house; host or cells: E. coli DH5α (pCWori+)
T17 sequence (P10613 whole entry, looked up, stated change not applied): as above
Protocol: as §1

[18] = target: T18, CaCYP51 K143R (Candida albicans, UniProt P10613, K143R)
T18 construct: made in house; host or cells: E. coli DH5α (pCWori+)
T18 sequence (P10613 whole entry, looked up, stated change not applied): as above
Protocol: as §1

[19] = target: T19, CaCYP51 G450E (Candida albicans, UniProt P10613, G450E)
T19 construct: made in house; host or cells: E. coli DH5α (pCWori+)
Protocol: as §1

[20] = target: T20, CaCYP51 Y118A (Candida albicans, UniProt P10613, Y118A); details: mean ± SD, duplicate
T20 construct: made in house; host or cells: E. coli DH5α (pCWori+)
Protocol: as §1

[21] = target: T21, CaCYP51 Q474K (Candida albicans, UniProt P10613, Q474K)
T21 construct: made in house; host or cells: E. coli DH5α (pCWori+)
Protocol: as §1

[22] = target: T22, CaCYP51 S405F (Candida albicans, UniProt P10613, S405F)
T22 construct: made in house; host or cells: E. coli DH5α (pCWori+)
T22 sequence (P10613 whole entry, looked up, stated change not applied): as above
Protocol: as §1

[23] = target: T23, CaCYP51 Y132F (Candida albicans, UniProt P10613, Y132F)
T23 construct: made in house; host or cells: E. coli DH5α (pCWori+)
Protocol: as §1

[24] = target: T24, CaCYP51 Y447H (Candida albicans, UniProt P10613, Y447H)
T24 construct: made in house; host or cells: E. coli DH5α (pCWori+)
T24 sequence (P10613 whole entry, looked up, stated change not applied): as above
Protocol: as §1

[25] = target: T25, CaCYP51 P230L (Candida albicans, UniProt P10613, P230L)
T25 construct: made in house; host or cells: E. coli DH5α (pCWori+)
Protocol: as §1

[26] = 0.25 h, 4 μM triazole, % of activity without triazole, read-out: Residual CYP51 activity (%) ± SD

**Q.** What does the source list for `OC(Cn1cncn1)(Cn1cncn1)c1ccc(F)cc1F` [Fluconazole, fluconazole]?
**A.** remaining activity at 4 µM [1, 26]: 0.22 ± 0.06%; IC50 ([1]; mean ± SD, duplicate): 281 ± 4 nM; remaining activity at 4 µM [2, 26]: 3.34 ± 0.61%; IC50 ([2]; mean ± SD, duplicate): 476 ± 80 nM; remaining activity at 4 µM [3, 26]: 3.68 ± 0.95%; IC50 ([3]; mean ± SD, duplicate): 483 ± 22 nM; remaining activity at 4 µM [4, 26]: 7.59 ± 0.58%; IC50 ([4]; mean ± SD, duplicate): 838 ± 27 nM; fold increase in IC50 over wild-type enzyme [5]: 13 fold; remaining activity at 4 µM [5, 26]: 56.8 ± 2.3%; IC50 ([5]; mean ± SD, duplicate): 4.98 ± 0.054 µM; remaining activity at 4 µM ([6]; 0.25 h, read-out: Residual CYP51 activity (%) ± SD): 0.11 ± 0.09%; IC50 ([6]; IC50): 384 ± 19 nM; remaining activity at 4 µM [7, 26]: 1.06 ± 0.04%; IC50 ([7]; mean ± SD, duplicate): 520 ± 57 nM; fold increase in IC50 over wild-type enzyme [8]: 3 fold and 3.2 fold; remaining activity at 4 µM [8, 26]: 18.26 ± 0.08%; IC50 ([8]; mean ± SD, duplicate): 1240 ± 64 nM; remaining activity at 4 µM [9, 26]: 18 ± 1.67%; IC50 ([9]; mean ± SD, duplicate): 1050 ± 325 nM; remaining activity at 4 µM [10, 26]: 0.76 ± 0.08%; IC50 ([10]; mean ± SD, duplicate): 245 ± 28 nM; remaining activity at 4 µM [11, 26]: 4.35 ± 0.33%; IC50 ([11]; mean ± SD, duplicate): 600 ± 17 nM; remaining activity at 4 µM [12, 26]: 6.71 ± 0.15%; IC50 ([12]; mean ± SD, duplicate): 450 ± 83 nM; remaining activity at 4 µM [13, 26]: 0.95 ± 0.17%; IC50 ([13]; mean ± SD, duplicate): 526 ± 211 nM; remaining activity at 4 µM [14, 26]: 10.5 ± 0.2%; IC50 ([14]; mean ± SD, duplicate): 796 ± 87 nM; remaining activity at 4 µM [15, 26]: 3.05 ± 0.17%; IC50 ([15]; mean ± SD, duplicate): 455 ± 47 nM; remaining activity at 4 µM [16, 26]: 3.96 ± 0.18%; IC50 ([16]; mean ± SD, duplicate): 512 ± 47 nM; fold increase in IC50 over wild-type enzyme [17]: 22 fold and 22.1 fold; remaining activity at 4 µM [17, 26]: 68.8 ± 5.68%; IC50 ([17]; mean ± SD, duplicate): 8.47 ± 1.27 µM; remaining activity at 4 µM [18, 26]: 28.1 ± 2.04%; IC50 ([18]; mean ± SD, duplicate): 1100 ± 313 nM; remaining activity at 4 µM [19, 26]: 18.9 ± 0.94%; IC50 ([19]; mean ± SD, duplicate): 1080 ± 247 nM; IC50 [20]: 194 ± 10 nM; remaining activity at 4 µM [21, 26]: 0.71 ± 0.08%; IC50 ([21]; mean ± SD, duplicate): 358 ± 8 nM; remaining activity at 4 µM [22, 26]: 11.6 ± 1.41%; IC50 ([22]; mean ± SD, duplicate): 820 ± 42 nM; remaining activity at 4 µM [23, 26]: 7.05 ± 0.27%; IC50 ([23]; mean ± SD, duplicate): 606 ± 66 nM; remaining activity at 4 µM [24, 26]: 4.34 ± 0.51%; IC50 ([24]; mean ± SD, duplicate): 483 ± 18 nM; remaining activity at 4 µM [25, 26]: 0.05 ± 0.03%; IC50 ([25]; mean ± SD, duplicate): 334 ± 86 nM
